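Grown in 96-well plates, cells were treated for 48 hours with each compound at five concentrations. Insufficient inhibition: endpoint recorded as highest concentration tested. At the GI50, growth is halved.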 Calls of active or inactive are those of the source. No stated cut-off is given here; in the data, active = GI50 up to about 1.1 µM and inactive = higher.
Columns and labels:
Assay in all cases: DTP human tumour cell line panel, 48 h
SK-MEL-5 = system: SK-MEL-5
SW-620 = system: SW-620
EKVX = system: EKVX
OVCAR-8 = system: OVCAR-8
786-0 = system: 786-0
HT-29 = system: HT-29
NCI-H226 = system: NCI-H226
SNB-75 = system: SNB-75
SF-268 = system: SF-268
BT-549 = system: BT-549
HOP-62 = system: HOP-62
SN12C = system: SN12C
UACC-257 = system: UACC-257
U-251 = system: U-251
HL-60 = system: HL-60
SR = system: SR
RXF 393 = system: RXF 393
MCF7 = system: MCF7
MDA-N = system: MDA-N
SNB-19 = system: SNB-19
HOP-92 = system: HOP-92
IGROV-1 = system: IGROV-1
NCI-H23 = system: NCI-H23
SK-MEL-2 = system: SK-MEL-2
TK-10 = system: TK-10
OVCAR-4 = system: OVCAR-4
ACHN = system: ACHN
OVCAR-5 = system: OVCAR-5
HCT-116 = system: HCT-116
PC-3 = system: PC-3
DU-145 = system: DU-145
A498 = system: A498
UO-31 = system: UO-31
RPMI-8226 = system: RPMI-8226
NCI/ADR-RES = system: NCI/ADR-RES
T47D = system: T47D
SK-MEL-28 = system: SK-MEL-28
CCRF-CEM = system: CCRF-CEM
CAKI-1 = system: CAKI-1
MDA-MB-435 = system: MDA-MB-435
LOX IMVI = system: LOX IMVI
KM12 = system: KM12
K562 = system: K562
SF-539 = system: SF-539
OVCAR-3 = system: OVCAR-3
M14 = system: M14
HCC 2998 = system: HCC 2998
Malme-3M = system: Malme-3M
A549 = system: A549
MOLT-4 = system: MOLT-4
MDA-MB-231 = system: MDA-MB-231
NCI-H460 = system: NCI-H460
NCI-H522 = system: NCI-H522
COLO 205 = system: COLO 205
UACC-62 = system: UACC-62
Hs-578T = system: Hs-578T
SF-295 = system: SF-295
HCT-15 = system: HCT-15
SK-OV-3 = system: SK-OV-3

Structure (SMILES): COc1ccc2oc(=O)cc(C)c2c1
- GI50 (SK-MEL-5): > 100 µM (inactive)
- GI50 (SW-620): > 100 µM (inactive)
- GI50 (EKVX): 21 µM (inactive)
- GI50 (OVCAR-8): > 100 µM (inactive)
- GI50 (786-0): > 100 µM (inactive)
- GI50 (HT-29): > 100 µM (inactive)
- GI50 (NCI-H226): > 100 µM (inactive)
- GI50 (SNB-75): 88.5 µM (inactive)
- GI50 (SF-268): > 100 µM (inactive)
- GI50 (BT-549): > 100 µM (inactive)
- GI50 (HOP-62): > 100 µM (inactive)
- GI50 (SN12C): > 100 µM (inactive)
- GI50 (UACC-257): > 100 µM (inactive)
- GI50 (U-251): > 100 µM (inactive)
- GI50 (HL-60): > 100 µM (inactive)
- GI50 (SR): > 100 µM (inactive)
- GI50 (RXF 393): > 100 µM (inactive)
- GI50 (MCF7): > 100 µM (inactive)
- GI50 (MDA-N): > 100 µM (inactive)
- GI50 (SNB-19): > 100 µM (inactive)
- GI50 (HOP-92): > 100 µM (inactive)
- GI50 (IGROV-1): > 100 µM (inactive)
- GI50 (NCI-H23): > 100 µM (inactive)
- GI50 (SK-MEL-2): > 100 µM (inactive)
- GI50 (TK-10): > 100 µM (inactive)
- GI50 (OVCAR-4): > 100 µM (inactive)
- GI50 (ACHN): > 100 µM (inactive)
- GI50 (OVCAR-5): > 100 µM (inactive)
- GI50 (HCT-116): > 100 µM (inactive)
- GI50 (PC-3): > 100 µM (inactive)
- GI50 (DU-145): > 100 µM (inactive)
- GI50 (A498): > 100 µM (inactive)
- GI50 (UO-31): 91.4 µM (inactive)
- GI50 (RPMI-8226): > 100 µM (inactive)
- GI50 (NCI/ADR-RES): > 100 µM (inactive)
- GI50 (T47D): 0.0733 µM (active)
- GI50 (SK-MEL-28): > 100 µM (inactive)
- GI50 (CCRF-CEM): > 100 µM (inactive)
- GI50 (CAKI-1): > 100 µM (inactive)
- GI50 (MDA-MB-435): > 100 µM (inactive)
- GI50 (LOX IMVI): > 100 µM (inactive)
- GI50 (KM12): > 100 µM (inactive)
- GI50 (K562): > 100 µM (inactive)
- GI50 (SF-539): > 100 µM (inactive)
- GI50 (OVCAR-3): > 100 µM (inactive)
- GI50 (M14): > 100 µM (inactive)
- GI50 (HCC 2998): > 100 µM (inactive)
- GI50 (Malme-3M): > 100 µM (inactive)
- GI50 (A549): > 100 µM (inactive)
- GI50 (MOLT-4): > 100 µM (inactive)
- GI50 (MDA-MB-231): > 100 µM (inactive)
- GI50 (NCI-H460): > 100 µM (inactive)
- GI50 (NCI-H522): > 100 µM (inactive)
- GI50 (COLO 205): > 100 µM (inactive)
- GI50 (UACC-62): > 100 µM (inactive)
- GI50 (Hs-578T): > 100 µM (inactive)
- GI50 (SF-295): > 100 µM (inactive)

Structure (SMILES): O=S(=O)(c1ccc(Br)cc1)N1CCN(S(=O)(=O)c2ccc(Br)cc2)CC1
- GI50 (SK-MEL-5): > 100 µM (inactive)
- GI50 (SW-620): > 100 µM (inactive)
- GI50 (HCT-15): > 100 µM
- GI50 (EKVX): > 100 µM (inactive)
- GI50 (OVCAR-8): > 100 µM (inactive)
- GI50 (786-0): > 100 µM (inactive)
- GI50 (HT-29): > 100 µM (inactive)
- GI50 (NCI-H226): > 100 µM (inactive)
- GI50 (SNB-75): > 100 µM (inactive)
- GI50 (SF-268): > 100 µM (inactive)
- GI50 (BT-549): > 100 µM (inactive)
- GI50 (HOP-62): > 100 µM (inactive)
- GI50 (SN12C): > 100 µM (inactive)
- GI50 (UACC-257): > 100 µM (inactive)
- GI50 (U-251): > 100 µM (inactive)
- GI50 (HL-60): > 100 µM (inactive)
- GI50 (SR): 0.0703 µM (active)
- GI50 (RXF 393): > 100 µM (inactive)
- GI50 (MCF7): > 100 µM (inactive)
- GI50 (MDA-N): > 100 µM (inactive)
- GI50 (SNB-19): > 100 µM (inactive)
- GI50 (HOP-92): > 100 µM (inactive)
- GI50 (IGROV-1): > 100 µM (inactive)
- GI50 (NCI-H23): > 100 µM (inactive)
- GI50 (SK-MEL-2): > 100 µM (inactive)
- GI50 (TK-10): > 100 µM (inactive)
- GI50 (OVCAR-4): > 100 µM (inactive)
- GI50 (ACHN): > 100 µM (inactive)
- GI50 (OVCAR-5): > 100 µM (inactive)
- GI50 (HCT-116): > 100 µM (inactive)
- GI50 (PC-3): > 100 µM (inactive)
- GI50 (DU-145): > 100 µM (inactive)
- GI50 (A498): > 100 µM (inactive)
- GI50 (UO-31): > 100 µM (inactive)
- GI50 (RPMI-8226): > 100 µM (inactive)
- GI50 (NCI/ADR-RES): > 100 µM (inactive)
- GI50 (T47D): > 100 µM (inactive)
- GI50 (SK-MEL-28): > 100 µM (inactive)
- GI50 (CCRF-CEM): > 100 µM (inactive)
- GI50 (CAKI-1): > 100 µM (inactive)
- GI50 (MDA-MB-435): > 100 µM (inactive)
- GI50 (LOX IMVI): > 100 µM (inactive)
- GI50 (KM12): > 100 µM (inactive)
- GI50 (K562): 5.87 µM (inactive)
- GI50 (OVCAR-3): > 100 µM (inactive)
- GI50 (M14): > 100 µM (inactive)
- GI50 (Malme-3M): > 100 µM (inactive)
- GI50 (A549): > 100 µM (inactive)
- GI50 (MOLT-4): 1.71 µM (inactive)
- GI50 (MDA-MB-231): > 100 µM (inactive)
- GI50 (NCI-H522): > 100 µM (inactive)
- GI50 (COLO 205): > 100 µM (inactive)
- GI50 (UACC-62): > 100 µM (inactive)
- GI50 (Hs-578T): > 100 µM (inactive)
- GI50 (SF-295): > 100 µM (inactive)
- GI50 (SK-OV-3): > 100 µM (inactive)

From ChEMBL document CHEMBL1201862, “PubChem BioAssay data set” (2004)
